Results: paper PMC13509954 (Antioxidants, 2026)
pIC50: −log10 of the molar value.

Biological target: lactoperoxidase (LPO) (Bos taurus, UniProt P80025)
Assay: LPO inhibition, peroxidase selectivity profiling
Type: biochemical

Row | pIC50 | Compound
1 | 6.05 | Cc1ccc2nc(-c3cccnc3)c(Nc3ccc4c(c3)OCO4)n2c1 [NE-2-6]
2 | 5.65 | COc1ccc(-c2nc3cc(C)ccn3c2Nc2ccc3c(c2)OCO3)cc1 [NE-2-7]
3 | 5.98 | Cc1ccn2c(Nc3ccc4c(c3)OCO4)c(-c3ccc(O)cc3)nc2c1 [NE-2-8]
